Laboratory results from US6914045B2, “Glycopeptide antibiotics” (Wyeth Holdings Corporation, priority 2001, dated 2005).
In brackets after ≈: the same amount, converted by molar mass. Numbered stars: 1 amine (or outer) side, 2 acyl side, 3 side chain; on linkers, the order of the positions; unused ones are H or OH. Square brackets hold non-standard residues; d marks the D form. Peptide text beside a SMILES is read from it. ξ: configuration not given here. X1 = N=C1NCC(C(O)C(N[*:1])C(=O)[*:2])N1C1OC(CO)C(O)C(O)C1O; ξEnduracididine(βξ-OH,4'ξ) = N=C1NCC(C(O)C(N)C(=O)O)N1

Columns and labels:
Assay in all cases: in vitro antibacterial evaluation, MIC by broth dilution
Type in all cases: cell-based
Streptococcus sp. = conditions: broth dilution, 18 hours at 35° C.
Summary of the method: (§1)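 Broth dilution per NCCLS standard M7-A2 in Muller-Hinton II […], with an inoculum of 5×10^5 CFU/mL and antibiotic spanning 64-0.06 μg/mL. The MIC is the lowest concentration that inhibits growth of the organism.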

Escherichia coli = conditions: 18 hours at 35° C.
Summary of the method: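 Inoculum 5×10^5 CFU/mL; concentrations 64 to 0.06 μg/mL; MIC defined as lowest inhibitory level. Conducted by broth dilution under NCCLS guidelines.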

Staphylococcus sp. = conditions: broth dilution, 18 hours at 35° C.
Summary of the method: as §1

Enterococcus sp. = conditions: broth dilution, 18 hours at 35° C.
Summary of the method: as §1

- MIC Streptococcus pneumoniae (ATCC 6301) (Streptococcus sp.; strain ATCC 6301): 64 µg/mL (≈ 66.9 µM)
- MIC Streptococcus pneumoniae (GC 1894) (Streptococcus sp.; strain GC 1894): 64 µg/mL (≈ 66.9 µM)
- MIC Streptococcus pyogenes (GC 4563) (Streptococcus sp.; strain GC 4563): 64 µg/mL (≈ 66.9 µM)
- MIC Streptococcus agalactiae (GC 4564) (Streptococcus sp.; strain GC 4564): >64 µg/mL
- MIC Streptococcus pneumoniae (GC 4565) (Streptococcus sp.; strain GC 4565): >64 µg/mL
- MIC Escherichia coli (ATCC 25922) (Escherichia coli; Escherichia coli (ATCC 25922)): 64 µg/mL (≈ 66.9 µM)
- MIC Escherichia coli (GC 4559) (Escherichia coli; Escherichia coli (GC 4559)): 64 µg/mL (≈ 66.9 µM)
- MIC Escherichia coli (GC 4560) (Escherichia coli; Escherichia coli (GC 4560)): 32 µg/mL (≈ 33.4 µM)
- MIC Coagulase Negative Staphylococcus (GC 4547) (Staphylococcus sp.): 64 µg/mL (≈ 66.9 µM)
- MIC Coagulase Negative Staphylococcus (GC 4548) (Staphylococcus sp.): >64 µg/mL
- MIC Coagulase Negative Staphylococcus (GC 4549) (Staphylococcus sp.): 64 µg/mL (≈ 66.9 µM)
- MIC Coagulase Negative Staphylococcus (GC 4551) (Staphylococcus sp.): >64 µg/mL
- MIC Coagulase Negative Staphylococcus (GC 6257) (Staphylococcus sp.): 64 µg/mL (≈ 66.9 µM)
- MIC Staphylococcus aureus (ATCC 29213) (Staphylococcus sp.): >64 µg/mL
- MIC Staphylococcus aureus (GC 1131) (Staphylococcus sp.): >64 µg/mL
- MIC Staphylococcus aureus (GC 3051) (Staphylococcus sp.): >64 µg/mL
- MIC Staphylococcus aureus (GC 3053) (Staphylococcus sp.): >64 µg/mL
- MIC Staphylococcus aureus (GC 4541) (Staphylococcus sp.): >64 µg/mL
- MIC Staphylococcus aureus (GC 4542) (Staphylococcus sp.): >64 µg/mL
- MIC Staphylococcus aureus (GC 4544) (Staphylococcus sp.): >64 µg/mL
- MIC Staphylococcus aureus (GC 4545) (Staphylococcus sp.): >64 µg/mL
- MIC Staphylococcus aureus-SMITH (GC 4543) (Staphylococcus sp.): >64 µg/mL
- MIC Staphylococcus aureus (ATCC 29213) (Staphylococcus sp.; strain ATCC 29213): >64 µg/mL
- MIC Staphylococcus aureus (GC 1131) (Staphylococcus sp.; strain GC 1131): >64 µg/mL
- MIC Staphylococcus aureus (GC 3051) (Staphylococcus sp.; strain GC 3051): >64 µg/mL
- MIC Staphylococcus aureus (GC 3053) (Staphylococcus sp.; strain GC 3053): >64 µg/mL
- MIC Staphylococcus aureus (GC 4541) (Staphylococcus sp.; strain GC 4541): >64 µg/mL
- MIC Staphylococcus aureus (GC 4542) (Staphylococcus sp.; strain GC 4542): >64 µg/mL
- MIC Staphylococcus aureus (GC 4544) (Staphylococcus sp.; strain GC 4544): >64 µg/mL
- MIC Staphylococcus aureus (GC 4545) (Staphylococcus sp.; strain GC 4545): >64 µg/mL
- MIC Coagulase Negative Staphylococcus (GC 4547) (Staphylococcus sp.; strain GC 4547): 64 µg/mL (≈ 66.9 µM)
- MIC Coagulase Negative Staphylococcus (GC 4548) (Staphylococcus sp.; strain GC 4548): >64 µg/mL
- MIC Coagulase Negative Staphylococcus (GC 4549) (Staphylococcus sp.; strain GC 4549): 64 µg/mL (≈ 66.9 µM)
- MIC Coagulase Negative Staphylococcus (GC 4551) (Staphylococcus sp.; strain GC 4551): >64 µg/mL
- MIC Coagulase Negative Staphylococcus (GC 6257) (Staphylococcus sp.; strain GC 6257): 64 µg/mL (≈ 66.9 µM)
- MIC Staphylococcus aureus-SMITH (GC 4543) (Staphylococcus sp.; strain SMITH GC 4543): >64 µg/mL
- MIC Enterococcus avium (GC 4558) (Enterococcus sp.; Enterococcus avium (GC 4558)): >64 µg/mL
- MIC Enterococcus faecalis (ATCC 29212) (Enterococcus sp.; Enterococcus faecalis (ATCC 29212)): >64 µg/mL
- MIC Enterococcus faecalis (GC 4553) (Enterococcus sp.; Enterococcus faecalis (GC 4553)): >64 µg/mL
- MIC Enterococcus faecalis (GC 4554) (Enterococcus sp.; Enterococcus faecalis (GC 4554)): >64 µg/mL
- MIC Enterococcus faecalis (GC 6189) (Enterococcus sp.; Enterococcus faecalis (GC 6189)): >64 µg/mL
- MIC Enterococcus faecium (GC 2243) (Enterococcus sp.; Enterococcus faecium (GC 2243)): >64 µg/mL
- MIC Enterococcus faecium (GC 4556) (Enterococcus sp.; Enterococcus faecium (GC 4556)): >64 µg/mL
- MIC Enterococcus faecium (GC 4557) (Enterococcus sp.; Enterococcus faecium (GC 4557)): 64 µg/mL (≈ 66.9 µM)
- MIC Enterococcus faecalis (ATCC 29212) (Enterococcus sp.; strain ATCC 29212): >64 µg/mL
- MIC Enterococcus faecalis (GC 2242) (Enterococcus sp.; strain GC 2242): >64 µg/mL
- MIC Enterococcus faecium (GC 2243) (Enterococcus sp.; strain GC 2243): >64 µg/mL
- MIC Enterococcus faecalis (GC 2691) (Enterococcus sp.; strain GC 2691): >64 µg/mL
- MIC Enterococcus faecalis (GC 3059) (Enterococcus sp.; strain GC 3059): >64 µg/mL
- MIC Enterococcus faecalis (GC 4552) (Enterococcus sp.; strain GC 4552): >64 µg/mL
- MIC Enterococcus faecalis (GC 4553) (Enterococcus sp.; strain GC 4553): >64 µg/mL
- MIC Enterococcus faecalis (GC 4554) (Enterococcus sp.; strain GC 4554): >64 µg/mL
- MIC Enterococcus faecium (GC 4556) (Enterococcus sp.; strain GC 4556): >64 µg/mL
- MIC Enterococcus faecium (GC 4557) (Enterococcus sp.; strain GC 4557): 64 µg/mL (≈ 66.9 µM)
- MIC Enterococcus avium (GC 4558) (Enterococcus sp.; strain GC 4558): >64 µg/mL
- MIC Enterococcus faecalis (GC 6189) (Enterococcus sp.; strain GC 6189): >64 µg/mL
SMILES: N=C1NCC(C(O)C2NC(=O)C(Cc3ccc(O)cc3)NC(=O)C(Cc3ccccc3)NC(=O)CNC(=O)C(CO)NC(=O)C(C(O)C3CNC(=N)N3C3OC(CO)C(O)C(O)C3O)NC2=O)N1 (stereo not drawn) [Example 279a, Cyclo[glycylphenylalanyltyrosyl-3-(2-iminoimidazolidin-4-yl)seryl-3-(3-hexopyranosyl-2-iminoimidazolidin-4-yl)serylseryl]] (cyclo(GFY[ξEnduracididine(βξ-OH,4'ξ)][X1]S); configuration not given here)
- MIC Staphylococcus haemolyticus (GC 4546) (Staphylococcus sp.): 64 µg/mL (≈ 66.9 µM)
- MIC Staphylococcus haemolyticus (GC 4546) (Staphylococcus sp.; strain GC 4546): 64 µg/mL (≈ 66.9 µM)
